# Data published in patent US20060035892A1, “Nitrosated imidazopyridines” (Atlanta Pharma AG, priority 2002, published 2006).
# Tested on: acid secretion stimulated by pentagastrin of the perfused rat stomach
# Assay: Secretion-inhibiting action on the perfused rat stomach (pentagastrin-stimulated acid secretion in vivo)
# Conditions: anesthetized female CD rats, pentagastrin 1 μg/kg i.v. stimulation, dose 1 μmol/kg i.d.
# Text: Testing of the Secretion-Inhibiting Action on the Perfused Rat Stomach
# In Table A below, the influence of the compounds according to the invention after […] administration is shown on the acid secretion stimulated by pentagastrin of the perfused rat stomach in vivo.
# The abdomen of anesthetized rats (CD rats, female, 200-250 g; 1.5 g/kg i.m. urethane) was opened after tracheotomy by means of a median upper abdominal incision and a PVC catheter was fixed transorally in the esophagus and a further catheter via the pylonus such that the ends of the tubing just projected into the gastric lumen. The catheter leading from the pylorus led outwards through a side opening in the right abdominal wall.
# After thorough rinsing (about 50-100 ml), warm physiological NaCl solution at 37° C. was continuously passed through the stomach (0.5 ml/min, pH 6.8-6.9; Braun-Unita I). The pH (pH meter 632, glass electrode EA 147; φ=5 mm, Metrohm), and, by titration with a freshly prepared 0.01N NaOH solution to pH 7 (Dosimat 665 Metrohm), the secreted HCl were determined in the effluent in each case collected at an interval of 15 minutes.
# The gastric secretion was stimulated by continuous perfusion of 1 μg/kg (=1.65 ml/h) of i.v. pentagastrin (left femoral vein) about 30 min after the end of the operation (i.e. after determination of 2 preliminary fractions). The substances to be tested were administered Intraduodenally in 2,5 ml/kg of liquid volume 60 min after the start of the pentagastrin continuous infusion.
# The body temperature of the animals was kept at a constant 37.8-38° C. by infrared irradiation and heat pads (automatic, stepless control by means of rectal temperature sensors).
row,Structure (SMILES),Inhibition of acid secretion [%]
1,COCCO[C@@H]1c2ccn3c(C)c(C)nc3c2N[C@H](c2ccccc2)[C@H]1OC(=O)CCCCO[N+](=O)[O-] [Example 1],100
2,COCCO[C@@H]1c2ccn3c(C)c(C)nc3c2N[C@H](c2ccccc2)[C@H]1OC(=O)CCCO[N+](=O)[O-] [Example 2],100
3,"COCCO[C@@H]1c2ccn3c(C)c(C)nc3c2O[C@H](c2ccccc2)[C@@H]1OC(=O)CCCCO[N+](=O)[O-] [Example 3, (7R,8R,9R)-2,3-Dimethyl-7-(2-methoxyethoxy)-9-phenyl-8-(5-nitro-oxy-valeryloxy)-7H-8,9-dihydro-pyrano[2,3-c]imdazo[1,2-a]pyridine]",100
4,CCC(CCCOC(=O)O[C@@H]1[C@@H](c2ccccc2)Nc2c(ccn3c(C)c(C)nc23)[C@H]1OCCOC)O[N+](=O)[O-] (stereo partly shown) [Example 4],100
